The values below are quoted from earlier work in publication PMC9475419 (RSC Advances, 2022).

“Also recorded” adds a separate entry of the source.

For data set [1] the following is noted: cited from earlier work.
The conditions of data set [2]: 15 Pep1 per AuNP (3.6 nm); cited from earlier work.

With CGSTIYASYYESGHGC [Pep1], the “structure and function of free peptide” value in data set [1] was “unstructured and non-functional”. The “suppression of non-specific binding of AuNPs by Pep1” value in data set [2] is listed as “enough to suppress the non-specific binding surface of AuNPs; also recorded: could sufficiently suppress the non-specific binding of AuNPs”.
